Assay [1] addresses Non-receptor tyrosine-protein kinase TYK2 (Homo sapiens) (UniProt P29597). The conditions noted are these: Compound concentration 1000.0 nM.
Assay [2] has as its target Cyclin-dependent kinase 19 (Homo sapiens) (UniProt Q9BWU1). The following applies: Compound concentration 1000.0 nM.
Assay [3] deals with Inhibitor of nuclear factor kappa-B kinase subunit alpha (Homo sapiens) (UniProt O15111). The following applies: Compound concentration 1000.0 nM.
The target of assay [4] is Calcium/calmodulin-dependent protein kinase type IV (Homo sapiens) (UniProt Q16566). The conditions noted are these: Compound concentration 1000.0 nM.
Assay [5] deals with Serine/threonine-protein kinase SBK1 (Homo sapiens) (UniProt Q52WX2). The following applies: Compound concentration 1000.0 nM.
Assay [6] addresses Serine/threonine-protein kinase Nek11 (Homo sapiens) (UniProt Q8NG66). The following applies: Compound concentration 1000.0 nM.
For assay [7], the target named is Macrophage-stimulating protein receptor (Homo sapiens) (UniProt Q04912). The conditions noted are these: Compound concentration 1000.0 nM.
Assay [8] deals with Phosphatidylinositol 4,5-bisphosphate 3-kinase catalytic subunit alpha isoform (Homo sapiens) (UniProt P42336). The conditions noted are these: Compound concentration 1000.0 nM.
The target of assay [9] is MAP/microtubule affinity-regulating kinase 4 (Homo sapiens) (UniProt Q96L34). The conditions noted are these: Compound concentration 1000.0 nM.
The target in assay [10] is Serine/threonine-protein kinase pim-3 (Homo sapiens) (UniProt Q86V86). The conditions noted are these: Compound concentration 1000.0 nM.
Assay [11] deals with Phosphatidylinositol 4,5-bisphosphate 3-kinase catalytic subunit alpha isoform (Homo sapiens), P42336 [M1043I]. The following applies: Compound concentration 1000.0 nM.
In assay [12] the target is Phosphorylase b kinase gamma catalytic chain, skeletal muscle/heart isoform (Homo sapiens) (UniProt Q16816). The conditions noted are these: Compound concentration 1000.0 nM.
In assay [13] the target is Myosin light chain kinase, smooth muscle (Homo sapiens) (UniProt Q15746). The following applies: Compound concentration 1000.0 nM.
The test system of assay [14] is Phosphatidylinositol 4,5-bisphosphate 3-kinase catalytic subunit alpha isoform (Homo sapiens), P42336 [I800L]. The conditions noted are these: Compound concentration 1000.0 nM.
For assay [15], the target named is G protein-coupled receptor kinase 4 (Homo sapiens) (UniProt P32298). The following applies: Compound concentration 1000.0 nM.
Assay [16] deals with Phosphatidylinositol 4,5-bisphosphate 3-kinase catalytic subunit alpha isoform (Homo sapiens), P42336 [E545K]. The following applies: Compound concentration 1000.0 nM.
Assay [17] has as its target Mitogen-activated protein kinase kinase kinase 7 (Homo sapiens) (UniProt O43318). The conditions noted are these: Compound concentration 1000.0 nM.
The target of assay [18] is Maternal embryonic leucine zipper kinase (Homo sapiens) (UniProt Q14680). The following applies: Compound concentration 1000.0 nM.
Assay [19] concerns the target Mitogen-activated protein kinase kinase kinase kinase 3 (Homo sapiens) (UniProt Q8IVH8). The following applies: Compound concentration 1000.0 nM.
The target in assay [20] is Dual specificity protein kinase CLK3 (Homo sapiens) (UniProt P49761). The conditions noted are these: Compound concentration 1000.0 nM.
Assay [21] concerns the target Dual specificity testis-specific protein kinase 1 (Homo sapiens) (UniProt Q15569). The following applies: Compound concentration 1000.0 nM.
Assay [22] has as its target Calcium/calmodulin-dependent protein kinase kinase 1 (Homo sapiens) (UniProt Q8N5S9). The conditions noted are these: Compound concentration 1000.0 nM.
Assay [23] deals with TRAF2 and NCK-interacting protein kinase (Homo sapiens) (UniProt Q9UKE5). The following applies: Compound concentration 1000.0 nM.
The target of assay [24] is Serine/threonine-protein kinase DCLK3 (Homo sapiens) (UniProt Q9C098). The following applies: Compound concentration 1000.0 nM.
The test system of assay [25] is Mast/stem cell growth factor receptor Kit (Homo sapiens), P10721 [V559D,T670I]. The conditions noted are these: Compound concentration 1000.0 nM.
Assay [26] deals with Tyrosine-protein kinase receptor Tie-1 (Homo sapiens) (UniProt P35590). The following applies: Compound concentration 1000.0 nM.
The target of assay [27] is Vascular endothelial growth factor receptor 3 (Homo sapiens) (UniProt P35916). The conditions noted are these: Compound concentration 1000.0 nM.
In assay [28] the target is Macrophage colony-stimulating factor 1 receptor (Homo sapiens) (UniProt P07333). The conditions noted are these: Compound concentration 1000.0 nM.
The target in assay [29] is Tyrosine-protein kinase ABL2 (Homo sapiens) (UniProt P42684). The conditions noted are these: Compound concentration 1000.0 nM.
The target in assay [30] is Serine/threonine-protein kinase RIO3 (Homo sapiens) (UniProt O14730). The following applies: Compound concentration 1000.0 nM.
In assay [31] the target is MAP kinase-activated protein kinase 2 (Homo sapiens) (UniProt P49137). Briefly: MAPKAP-K2 (h) Millipore kinase activity assay. The following applies: Compound concentration 1.0 uM.
For another assay, the species on record is Rattus norvegicus. Briefly: Inhibition of Rolipram at 10 µM in the Eurofins-Panlabs radioligand binding assay (Eurofins_assay_268811). It is filed as protein assay. On the set-up: ligand concentration 1.8 nM. The following applies: Compound concentration 10.0 uM.
Assay [32] deals with GABA-A receptor; anion channel (Rattus norvegicus) (UniProt O09028+P15431+P18506+P18508+P19969+P20236+P23574+P23576+P28471+P28473+P30191+P62813+P63079+P63138+Q91ZM7+Q9ES14). Briefly: Inhibition of GABAA, Muscimol, Central at 10 µM in the Eurofins-Panlabs radioligand binding assay (Eurofins_assay_226500). The assay is classed as protein-complex assay. The following applies: Compound concentration 10.0 uM.

In assay [33] the target is Hepatocyte growth factor receptor (Homo sapiens, UniProt P08581). Briefly: Met (h) Millipore kinase activity assay. The following applies: Compound concentration 1.0 uM.
Assay [34] deals with Serine/threonine-protein kinase 24 (Homo sapiens) (UniProt Q9Y6E0). Briefly: MST3 (h) Millipore kinase activity assay. The following applies: Compound concentration 1.0 uM.
The target of assay [35] is Histamine H1 receptor (Homo sapiens) (UniProt P35367). The following applies: Compound concentration 10.0 uM.
The target of assay [36] is Serine/threonine-protein kinase MRCK alpha (Homo sapiens) (UniProt Q5VT25). Briefly: MRCKalpha (h) Millipore kinase activity assay. The following applies: Compound concentration 1.0 uM.
Assay [37] concerns the target Casein kinase I isoform gamma-2 (Homo sapiens) (UniProt P78368). Briefly: CK1gamma2 (h) Millipore kinase activity assay. The conditions noted are these: Compound concentration 1.0 uM.
Assay [38] deals with Angiopoietin-1 receptor (Homo sapiens) (UniProt Q02763). Briefly: Tie2 (h) Millipore kinase activity assay. The conditions noted are these: Compound concentration 1.0 uM.
For assay [39], the target named is Ephrin type-A receptor 1 (Homo sapiens) (UniProt P21709). Briefly: EphA1 (h) Millipore kinase activity assay. The following applies: Compound concentration 1.0 uM.
Assay [40] has as its target Dual specificity mitogen-activated protein kinase kinase 4 (Mus musculus) (UniProt P47809). Briefly: MKK4 (m) Millipore kinase activity assay. The following applies: Compound concentration 1.0 uM.
For assay [41], the target named is Eukaryotic elongation factor 2 kinase (Homo sapiens) (UniProt O00418). Briefly: eEF-2K (h) Millipore kinase activity assay. The following applies: Compound concentration 1.0 uM.
Assay [42] concerns the target NUAK family SNF1-like kinase 1 (Homo sapiens) (UniProt O60285). Briefly: ARK5 (h) Millipore kinase activity assay. The following applies: Compound concentration 1.0 uM.

Sequence of Serine/threonine-protein kinase SBK1 (Homo sapiens) (Q52WX2 whole entry): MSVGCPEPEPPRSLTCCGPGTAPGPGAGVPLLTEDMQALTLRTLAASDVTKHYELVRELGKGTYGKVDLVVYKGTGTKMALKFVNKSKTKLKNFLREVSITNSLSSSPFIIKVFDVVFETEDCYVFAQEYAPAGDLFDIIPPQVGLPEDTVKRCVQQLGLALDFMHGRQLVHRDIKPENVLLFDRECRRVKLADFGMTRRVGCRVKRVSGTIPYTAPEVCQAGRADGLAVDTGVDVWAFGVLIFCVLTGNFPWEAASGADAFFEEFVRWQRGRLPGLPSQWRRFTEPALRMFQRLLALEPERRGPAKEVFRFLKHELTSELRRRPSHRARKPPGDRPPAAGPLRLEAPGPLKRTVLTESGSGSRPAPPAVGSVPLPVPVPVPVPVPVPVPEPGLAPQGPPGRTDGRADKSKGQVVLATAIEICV
Sequence of Dual specificity mitogen-activated protein kinase kinase 4 (Mus musculus) (P47809 whole entry): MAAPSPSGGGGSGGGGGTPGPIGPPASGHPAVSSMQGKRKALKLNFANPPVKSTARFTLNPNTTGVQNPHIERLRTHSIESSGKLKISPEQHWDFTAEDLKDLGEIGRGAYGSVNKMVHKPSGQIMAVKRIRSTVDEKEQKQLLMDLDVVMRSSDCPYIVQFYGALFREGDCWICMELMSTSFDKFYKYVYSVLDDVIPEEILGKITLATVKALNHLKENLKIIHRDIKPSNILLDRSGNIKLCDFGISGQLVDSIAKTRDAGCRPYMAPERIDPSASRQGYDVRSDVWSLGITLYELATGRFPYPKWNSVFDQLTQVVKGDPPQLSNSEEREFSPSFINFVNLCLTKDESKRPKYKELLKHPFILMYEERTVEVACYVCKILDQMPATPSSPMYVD
Sequence of TRAF2 and NCK-interacting protein kinase (Homo sapiens) (Q9UKE5 whole entry, looked up): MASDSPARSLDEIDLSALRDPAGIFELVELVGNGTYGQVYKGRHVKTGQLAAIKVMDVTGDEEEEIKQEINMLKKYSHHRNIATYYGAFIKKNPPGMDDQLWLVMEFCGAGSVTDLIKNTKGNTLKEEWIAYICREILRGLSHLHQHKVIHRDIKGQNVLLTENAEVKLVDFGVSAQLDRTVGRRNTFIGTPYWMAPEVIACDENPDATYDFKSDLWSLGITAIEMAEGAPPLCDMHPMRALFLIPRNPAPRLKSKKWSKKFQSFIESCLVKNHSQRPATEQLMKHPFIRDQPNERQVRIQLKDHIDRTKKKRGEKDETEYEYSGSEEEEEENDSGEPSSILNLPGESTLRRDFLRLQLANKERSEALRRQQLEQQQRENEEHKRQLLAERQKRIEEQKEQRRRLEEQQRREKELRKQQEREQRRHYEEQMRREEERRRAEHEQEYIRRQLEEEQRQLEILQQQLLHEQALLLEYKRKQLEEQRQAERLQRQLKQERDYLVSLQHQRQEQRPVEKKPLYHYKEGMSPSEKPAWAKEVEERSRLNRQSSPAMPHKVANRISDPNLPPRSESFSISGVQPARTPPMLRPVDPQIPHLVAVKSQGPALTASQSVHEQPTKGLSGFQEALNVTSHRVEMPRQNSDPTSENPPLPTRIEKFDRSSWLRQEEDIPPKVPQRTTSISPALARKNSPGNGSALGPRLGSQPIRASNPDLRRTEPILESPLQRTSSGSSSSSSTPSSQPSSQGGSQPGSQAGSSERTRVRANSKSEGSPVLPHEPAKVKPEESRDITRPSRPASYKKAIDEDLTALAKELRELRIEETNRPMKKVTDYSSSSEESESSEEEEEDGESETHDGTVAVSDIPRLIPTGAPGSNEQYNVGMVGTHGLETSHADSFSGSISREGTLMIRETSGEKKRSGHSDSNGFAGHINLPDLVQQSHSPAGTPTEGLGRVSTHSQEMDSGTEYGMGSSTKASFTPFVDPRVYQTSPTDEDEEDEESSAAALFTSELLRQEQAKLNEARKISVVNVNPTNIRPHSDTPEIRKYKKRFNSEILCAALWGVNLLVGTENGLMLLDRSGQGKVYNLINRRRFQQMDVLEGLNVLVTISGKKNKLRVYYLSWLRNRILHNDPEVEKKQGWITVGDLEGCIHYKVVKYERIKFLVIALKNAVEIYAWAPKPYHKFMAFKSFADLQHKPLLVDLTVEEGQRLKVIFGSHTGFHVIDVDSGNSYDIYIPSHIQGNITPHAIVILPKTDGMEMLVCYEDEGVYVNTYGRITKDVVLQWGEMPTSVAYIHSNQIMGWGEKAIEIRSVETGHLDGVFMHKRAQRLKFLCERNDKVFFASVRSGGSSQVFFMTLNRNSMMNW
Sequence of Mitogen-activated protein kinase kinase kinase 7 (Homo sapiens) (O43318 whole entry): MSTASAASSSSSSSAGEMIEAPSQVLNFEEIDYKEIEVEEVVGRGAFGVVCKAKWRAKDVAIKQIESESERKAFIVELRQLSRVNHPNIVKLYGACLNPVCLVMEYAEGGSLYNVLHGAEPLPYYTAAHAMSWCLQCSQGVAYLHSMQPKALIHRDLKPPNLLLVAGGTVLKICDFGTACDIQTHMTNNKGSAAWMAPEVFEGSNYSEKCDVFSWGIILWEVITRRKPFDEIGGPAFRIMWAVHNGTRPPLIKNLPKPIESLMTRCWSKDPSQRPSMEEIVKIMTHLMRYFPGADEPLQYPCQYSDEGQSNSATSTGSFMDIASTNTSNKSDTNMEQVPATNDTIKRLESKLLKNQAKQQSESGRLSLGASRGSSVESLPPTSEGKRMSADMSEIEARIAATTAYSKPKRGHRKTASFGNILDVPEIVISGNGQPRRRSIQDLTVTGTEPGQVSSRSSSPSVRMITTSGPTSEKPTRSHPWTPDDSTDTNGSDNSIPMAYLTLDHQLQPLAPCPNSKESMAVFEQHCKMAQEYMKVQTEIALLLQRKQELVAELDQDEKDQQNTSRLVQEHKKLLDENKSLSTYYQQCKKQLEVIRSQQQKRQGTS
Sequence of Maternal embryonic leucine zipper kinase (Homo sapiens) (Q14680 whole entry, looked up): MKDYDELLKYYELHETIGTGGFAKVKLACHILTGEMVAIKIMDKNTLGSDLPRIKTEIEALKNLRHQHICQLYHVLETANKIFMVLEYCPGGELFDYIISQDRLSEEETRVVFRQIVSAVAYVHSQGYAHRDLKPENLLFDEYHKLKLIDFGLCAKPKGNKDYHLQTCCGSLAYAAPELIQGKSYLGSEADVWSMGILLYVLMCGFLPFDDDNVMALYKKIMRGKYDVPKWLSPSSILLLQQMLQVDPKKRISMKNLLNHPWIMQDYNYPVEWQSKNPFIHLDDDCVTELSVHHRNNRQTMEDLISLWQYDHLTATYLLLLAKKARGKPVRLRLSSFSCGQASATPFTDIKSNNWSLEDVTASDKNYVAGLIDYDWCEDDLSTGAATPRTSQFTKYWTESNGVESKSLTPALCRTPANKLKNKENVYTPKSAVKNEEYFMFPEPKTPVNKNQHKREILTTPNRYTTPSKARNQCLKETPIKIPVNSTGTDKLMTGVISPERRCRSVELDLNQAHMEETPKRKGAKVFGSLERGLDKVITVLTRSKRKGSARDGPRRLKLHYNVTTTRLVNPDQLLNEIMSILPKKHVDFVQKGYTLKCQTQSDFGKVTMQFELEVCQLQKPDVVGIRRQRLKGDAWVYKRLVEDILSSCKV
Sequence of Histamine H1 receptor (Homo sapiens) (P35367 whole entry): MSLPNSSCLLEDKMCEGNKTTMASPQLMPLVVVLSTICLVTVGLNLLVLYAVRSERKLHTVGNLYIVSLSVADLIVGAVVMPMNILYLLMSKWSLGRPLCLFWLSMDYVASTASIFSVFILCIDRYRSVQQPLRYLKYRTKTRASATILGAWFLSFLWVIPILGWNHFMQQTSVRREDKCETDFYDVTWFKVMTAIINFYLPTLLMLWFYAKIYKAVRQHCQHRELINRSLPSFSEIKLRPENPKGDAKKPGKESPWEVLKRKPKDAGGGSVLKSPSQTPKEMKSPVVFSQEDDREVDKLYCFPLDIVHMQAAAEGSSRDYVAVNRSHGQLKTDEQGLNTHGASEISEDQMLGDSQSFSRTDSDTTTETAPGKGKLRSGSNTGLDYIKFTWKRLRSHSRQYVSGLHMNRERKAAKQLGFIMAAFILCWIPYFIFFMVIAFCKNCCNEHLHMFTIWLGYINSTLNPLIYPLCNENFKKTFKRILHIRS
Sequence of Dual specificity protein kinase CLK3 (Homo sapiens) (P49761 whole entry, looked up): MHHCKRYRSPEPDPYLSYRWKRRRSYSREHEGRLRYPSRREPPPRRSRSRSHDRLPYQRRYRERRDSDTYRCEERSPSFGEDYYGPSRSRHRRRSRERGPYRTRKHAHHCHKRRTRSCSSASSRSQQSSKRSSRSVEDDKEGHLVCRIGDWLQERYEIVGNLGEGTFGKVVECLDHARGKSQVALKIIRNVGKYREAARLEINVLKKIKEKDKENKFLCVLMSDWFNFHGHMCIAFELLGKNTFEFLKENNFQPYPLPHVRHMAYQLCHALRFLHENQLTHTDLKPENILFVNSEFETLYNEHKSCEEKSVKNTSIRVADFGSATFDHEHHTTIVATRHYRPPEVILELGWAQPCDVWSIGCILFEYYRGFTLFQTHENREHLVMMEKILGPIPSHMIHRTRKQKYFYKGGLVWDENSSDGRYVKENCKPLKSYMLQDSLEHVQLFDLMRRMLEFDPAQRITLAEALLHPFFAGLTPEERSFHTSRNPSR
Sequence of G protein-coupled receptor kinase 4 (Homo sapiens) (P32298 whole entry, looked up, canonical isoform): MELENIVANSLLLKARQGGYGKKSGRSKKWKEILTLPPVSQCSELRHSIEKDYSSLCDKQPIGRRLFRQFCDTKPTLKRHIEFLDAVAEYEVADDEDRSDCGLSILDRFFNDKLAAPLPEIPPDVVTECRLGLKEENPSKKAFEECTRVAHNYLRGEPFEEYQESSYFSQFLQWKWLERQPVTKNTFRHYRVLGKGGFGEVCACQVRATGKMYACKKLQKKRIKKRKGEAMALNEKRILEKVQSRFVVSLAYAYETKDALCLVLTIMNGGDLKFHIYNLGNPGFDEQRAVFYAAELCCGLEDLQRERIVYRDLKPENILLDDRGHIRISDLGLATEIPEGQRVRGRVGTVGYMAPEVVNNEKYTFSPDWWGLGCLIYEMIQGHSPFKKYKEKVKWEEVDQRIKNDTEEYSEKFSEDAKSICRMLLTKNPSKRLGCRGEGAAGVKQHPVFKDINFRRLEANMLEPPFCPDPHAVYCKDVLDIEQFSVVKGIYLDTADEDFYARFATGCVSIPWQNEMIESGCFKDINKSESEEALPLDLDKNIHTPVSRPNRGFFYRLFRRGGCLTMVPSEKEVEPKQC

Consider `CC1=C(C#N)[C@@H](c2ccc3[nH]nc(C)c3c2)C(C#N)=C(c2ccc(Cl)cc2)N1` [BAY-827], for which the residual activity was 100% in assay [1]; 66.8% in assay [2]; 100% in [3]; 31.8% in assay [4]; 100% in [5]; 62.4% in [6]. The residual activity is 70.2% in assay [7]; 100% in assay [8]; 100% in [9]; 100% in assay [10]; 25.2% in [11]; 100% in assay [12]. Moreover, the residual activity in assay [13] is 100%; in assay [14], 100%; in [15] it was 100%; in [16] it was 74.9%; in assay [17] it was 100%; in assay [18] it was 100%. The residual activity in assay [19] is 100%; in assay [20], 100%; in assay [21] it was 100%; in assay [22], 93.7%; in assay [23], 100%; in [24], 71.3%. In addition, the residual activity in [25] was 84.4%; in assay [26], 76.4%; in assay [27] it was 89.5%; in assay [28], 100%; in assay [29] it was 100%; in assay [30] it was 100%.
Consider `CC1=C(C#N)C(c2ccc3[nH]nc(C)c3c2)C(C#N)=C(C)N1` [BAY-474], for which the inhibition in [31] is -2%; in the assay listed under Rattus norvegicus, 10%; in [32], 10%; in assay [33], 82%; in assay [34] it was 10%; in assay [35] it was 17.7%. The inhibition was -10% in [36]; 19% in assay [37]; 10% in assay [38]; 0% in assay [39]; 31% in [40]; -5% in [41]. Moreover, in assay [42], the inhibition is 22%.

The record behind these values is ChEMBL document CHEMBL4507263, “Data for DCP probe BAY-474” (2021).
